Experimental findings from patent US20100311821A1, “Synthetic vector” (priority 2009, published 2010) are described below.

The subject of the test is λ-DNA. Description: AFM imaging of DNA complexes. Format: physicochemical, lambda phage. Particulars: 50 μg/ml λ-DNA, stoichiometric KWK 64 μM (16 μM PP4, 8 μM PP8), 10 mM sodium cacodylate buffer. On the procedure:
Preparation of DNA complexes. […] The mixture solution was vortexed for 30 seconds and allowed to equilibrate at room temperature for a few hours. The final DNA concentration was set at 50 μg/ml.
Characterization of DNA complexes structure by Atomic Force Microscopy. DNA complexes were deposited on freshly cleaved mica and then allowed to air dry. Tapping mode AFM imaging was performed on a Digital Instruments Nanoscope […] scanning probe microscope with a multimode head. Silicon probes (VistaProbes T300) with spring constant 40 N/m, resonant frequency, 300 kHz was used to obtain all images.
Long linear lambda phage DNA, λ-DNA, (double-stranded, 48 kbp, MW=3×10^7 Da, contour length—17 μm) in dilute aqueous solution (100 μg ml^−1 DNA in 10 mM pH=6.5 sodium cacodylate buffer containing 0.5 mM EDTA) was used for packaging studies. […] The final DNA concentration was set at 50 μg ml^−1 throughout the studies in this example. The DNA-KWK, DNA-PP4 and DNA-PP8 complex structures were investigated by atomic force microscope (“AFM”) on mica substrates.

lysine-tryptophan-lysine [KWK]: the “DNA compaction (AFM)” value is reported as “No DNA compaction”.
